The text below walks through data of patent US4173648A, “3β-Hydroxy-18β-olean-9-en-30-oic acids” (I.S.F. SpA, priority 1977, dated 1979).

Where a name gives a salt, the structure may show the parent alone.

For one data set, the system named is male Swiss mice. The data set is described as follows: anti-ulcer action, cold stress by immersion in water and contention stress (method of C. J. Pfeiffer). It is filed as in vivo, mouse (Swiss). Particulars: controls = 100. On the procedure:
The test was carried out on male Swiss mice with an average body weight of 23 g. subjected to cold stress by immersion in water and to a contention stress according to the method of C. J. Pfeiffer ("Peptic ulcer", Munksgaard, 1971, page 84). Three dosage levels of 25, 50 and 100 mg/kg and 15 animals for each dosage level were used.
The anti-ulcer action of the compounds was evaluated by calculating the percentage average inhibition, which indicates the inhibition of the ulcer seriousness index in the treated animals, taking 100 as the seriousness index of the controls.

Data set [1] is described as follows: LD50 in mice per os (acute toxicity). Particulars: mouse, in vivo, po.
In a further data set the test system is male Wistar rats. The data set is described as follows: anti-diuretic action, urinary sodium and potassium (method of F. M. Sullivan). It is filed as in vivo, rat (Wistar). Particulars: for Na+/K+ ratio (urine): gastric probe, urine of five hours after treatment; for % inhibition of the ratio Na+/K+: ratio in controls = 100. The method, then:
The urine produced in the five hours after treatment are collected and the potassium and sodium contents are determined. The tests were carried out at two dosage levels, 30 and 60 mg/kg, using, for each dosage level, 8 pairs of animals.

For the molecule `CC1(C)[C@@H](OC(=O)CCC(=O)O)CC[C@]2(C)C3=CCC4[C@@H]5C[C@@](C)(C(=O)O)CC[C@]5(C)CC[C@@]4(C)[C@]3(C)CC[C@@H]12` (stereo partly drawn) [Disodium salt of 3β-(3-carboxypropionoxy)-18β-olean-9-en-30-oic acid], the results for the “% average inhibition (of the ulcer seriousness index)” value with male Swiss mice (25 mg/kg os), with male Swiss mice (50 mg/kg os) and in the data set on male Swiss mice (100 mg/kg os) were 13%, 22.5% and 70.5%, respectively. In data set [1], the median lethal dose (LD50) (usually the dose expected to kill half of the subjects tested) stood at 1000 mg/kg. Further, the figures for the “Na+/K+ ratio (urine)” value with male Wistar rats (30 mg/kg) and in the data set on male Wistar rats (60 mg/kg) were 3.18 and 3.59, respectively. Besides, the “% inhibition of the ratio Na+/K+” value in the data set on male Wistar rats (30 mg/kg) is listed as 0%; with male Wistar rats (60 mg/kg) it was -3%.
As for `CC1(C)[C@@H](OC(=O)CCC(=O)O)CC[C@]2(C)[C@H]3C(=O)C=C4[C@@H]5C[C@@](C)(C(=O)O)CC[C@]5(C)CC[C@@]4(C)[C@]3(C)CC[C@@H]12` [carbenoxolone, disodium salt of glycycrrhetinic acid 3-hemisuccinate], the “% average inhibition (of the ulcer seriousness index)” value in the data set on male Swiss mice (25 mg/kg os) was determined as 29.5%; with male Swiss mice (50 mg/kg os) it was 29%; in the data set on male Swiss mice (100 mg/kg os) it was 63.5%. In data set [1], this molecule returned a 50% lethal dose (LD50) of 700 mg/kg. Also, the “Na+/K+ ratio (urine)” value came out at 1.81 in the data set with male Wistar rats (30 mg/kg) and 1.24 with male Wistar rats (60 mg/kg). In addition, the results for the “% inhibition of the ratio Na+/K+” value with male Wistar rats (30 mg/kg) and with male Wistar rats (60 mg/kg) were 43% and 64%, respectively.
